This is an account of results in ChEMBL document CHEMBL4483862, “Open-source discovery of chemical leads for next-generation chemoprotective antimalarials” (2018).

For the test, the system named is Plasmodium berghei. The experiment in a line: Luciferase/luciferin-expressing antifolate-resistant parasites were used to infect a culture of HepG2 cells that were pre-incubated with compounds. Infected hepatocytes emit light due to the luciferase reaction. Assay results are presented as the percent inhibition of light emission compared to control. […]. Particulars: sporozoite; for IC90: read-out: LUCIFERASE INFECTION ASSAY - IC90. It is filed as functional.

What is called IC50 is the concentration that gives 50% inhibition. For orientation: IC90 means the concentration needed for an effect of 90%. Regarding `N=C(N)NN=C1CCCCCCCCCCC1`, the IC90 was above 12 µM. The IC50 (HEPG2TOX_HILL_SLOPE 5.24, 2.64, HEPG2TOX_R_SQUARED 0.916, 0.913, PBLUC_HILL_SLOPE 15.5, 3.20, PBLUC_R_SQUARED 0.175, 0.492, read-out: LUCIFERASE INFECTION ASSAY - IC50) was 11.7 µM.

Take `Cc1ccc(Cl)cc1NC(=O)C[n+]1ccc(Cc2ccc([N+](=O)[O-])cc2)cc1`: the IC90 was above 10 µM. Besides, the IC50 (HEPG2TOX_HILL_SLOPE 5.4, HEPG2TOX_R_SQUARED 0.89, PBLUC_HILL_SLOPE 4.32, PBLUC_R_SQUARED 0.492, read-out: LUCIFERASE INFECTION ASSAY - IC50) is 6.22 µM.

With `c1ccc2c(c1)oc1c(-c3ccc4nccn4c3)cccc12`, the concentration for an effect of 90% (IC90) is above 11.6 µM. In addition, the IC50 (HEPG2TOX_HILL_SLOPE 5.27, HEPG2TOX_R_SQUARED 0.667, PBLUC_HILL_SLOPE 2.08, PBLUC_R_SQUARED 0.703, read-out: LUCIFERASE INFECTION ASSAY - IC50) was 4.57 µM.

As to `Cc1c(Cl)cccc1N=C(SCC(=O)N1CCCCCC1)C(C#N)c1nc2ccccc2s1` (configuration not stated), the IC90 was above 10 µM. For the same compound, under “HEPG2TOX_HILL_SLOPE 5.36, HEPG2TOX_R_SQUARED 0.816, PBLUC_HILL_SLOPE 12.3, PBLUC_R_SQUARED 0.271, read-out: LUCIFERASE INFECTION ASSAY - IC50”, the IC50 is 8.92 µM.

`Cc1oc(C(C)(C)C)cc1-c1cc(NC(=O)Nc2ccccc2C#N)n(-c2cc(C(F)(F)F)cc(C(F)(F)F)c2)n1`: the IC90 came to 3 µM. In addition, the IC50 (HEPG2TOX_HILL_SLOPE 5.04, HEPG2TOX_R_SQUARED 0.982, PBLUC_HILL_SLOPE 7.22, PBLUC_R_SQUARED 0.381, read-out: LUCIFERASE INFECTION ASSAY - IC50) was 2.22 µM.

Take `Cc1ccc(C(C)CCN2CCC3(CC2)C(=O)N(C2Cc4ccccc4C2)C(=O)N3CC(C)C)o1` (configuration not stated): the IC90 is above 6.91 µM. Also, the IC50 (HEPG2TOX_HILL_SLOPE 5.24, HEPG2TOX_R_SQUARED 0.932, PBLUC_HILL_SLOPE 15.5, PBLUC_R_SQUARED 0.389, read-out: LUCIFERASE INFECTION ASSAY - IC50) is 6.38 µM.

With `Cc1cc[n+](CC(=O)Nc2ccc(Br)c(C)c2)cc1`, the IC90 was above 10 µM. In addition, the IC50 (HEPG2TOX_HILL_SLOPE 5.04, HEPG2TOX_R_SQUARED 0.103, PBLUC_HILL_SLOPE 18.3, PBLUC_R_SQUARED 0.0767, read-out: LUCIFERASE INFECTION ASSAY - IC50) came out at 9.35 µM.

Consider `CCCNC(=O)c1c(NC(=O)c2ccc(F)c(F)c2F)nc2ccccn12`, for which the IC90 was above 8.77 µM. The IC50 (HEPG2TOX_HILL_SLOPE 5.13, HEPG2TOX_R_SQUARED 0.252, PBLUC_HILL_SLOPE 2.06, PBLUC_R_SQUARED 0.791, read-out: LUCIFERASE INFECTION ASSAY - IC50) was 6.47 µM.

With `COc1ccc(C(=O)OCC(=O)Nc2sccc2C(N)=O)cc1S(=O)(=O)N1CCCCC1C` (configuration not stated), the IC90 was above 10 µM. In addition, the IC50 (HEPG2TOX_HILL_SLOPE 5.31, HEPG2TOX_R_SQUARED 0.826, PBLUC_HILL_SLOPE 1.98, PBLUC_R_SQUARED 0.24, read-out: LUCIFERASE INFECTION ASSAY - IC50) was found to be 5.17 µM.

In the case of `COc1ccccc1NC(=O)NCc1nc(-c2ccccc2)c[nH]1`, the IC90 stood at 5.1 µM. The IC50 (HEPG2TOX_HILL_SLOPE 5.47, HEPG2TOX_R_SQUARED 0.951, PBLUC_HILL_SLOPE 7.77, PBLUC_R_SQUARED 0.194, read-out: LUCIFERASE INFECTION ASSAY - IC50) turned out to be 3.84 µM.

`CC1CCc2ccccc2N1CC(=O)c1cccn1C` (configuration not stated): the IC90 was above 10 µM. Where the note is “HEPG2TOX_HILL_SLOPE 5.07, HEPG2TOX_R_SQUARED 0.0101, read-out: LUCIFERASE INFECTION ASSAY - IC50”, the IC50 was above 10 µM.

In the case of `N#CC(Cc1cccc([N+](=O)[O-])c1)(c1ccccc1)c1ccccc1`, the IC90 is above 10 µM. The IC50 (HEPG2TOX_HILL_SLOPE 5.53, HEPG2TOX_R_SQUARED 0.223, PBLUC_HILL_SLOPE 1.93, PBLUC_R_SQUARED 0.0999, read-out: LUCIFERASE INFECTION ASSAY - IC50) was above 10 µM.

For `O=C(NC1CCOc2ccccc21)c1ccccc1Oc1ccccc1` (configuration not stated), the IC90 is above 10 µM. The IC50 (HEPG2TOX_HILL_SLOPE 5.41, HEPG2TOX_R_SQUARED 0.0143, read-out: LUCIFERASE INFECTION ASSAY - IC50) is above 10 µM.

Turning to `COc1ccc(C2c3c(C)nn(-c4ccccc4)c3N=C(c3ccccc3F)N2C2CC2)cc1` (configuration not stated), the IC90 was above 10 µM. Further, the IC50 (HEPG2TOX_HILL_SLOPE 5.27, HEPG2TOX_R_SQUARED 0.234, read-out: LUCIFERASE INFECTION ASSAY - IC50) was above 10 µM.

`CCC(C)(C)c1ccc(Oc2ccc(NC(=O)c3ccc(OC(F)F)c(OC)c3)cc2)cc1`: the IC90 was above 10 µM. Also, the IC50 (HEPG2TOX_HILL_SLOPE 5.1, HEPG2TOX_R_SQUARED 0.781, PBLUC_HILL_SLOPE 1.15, PBLUC_R_SQUARED 0.697, read-out: LUCIFERASE INFECTION ASSAY - IC50) came out at 2.6 µM.

In the case of `CCOC(=O)c1sc(N(NC(=O)c2ccccc2Cl)C(=O)c2ccccc2Cl)c2c1CC(C)(C)CC2=O`, the IC90 was above 5.9 µM. For the setting “HEPG2TOX_HILL_SLOPE 5.11, HEPG2TOX_R_SQUARED 0.645, PBLUC_HILL_SLOPE 3.24, PBLUC_R_SQUARED 0.155, read-out: LUCIFERASE INFECTION ASSAY - IC50”, the IC50 worked out at 3.1 µM.

For `COCCCN1C(=O)N(Cc2ccccc2)C(=O)C12CCN(Cc1cccc(C(F)(F)F)c1)CC2`, the IC90 was above 6.74 µM. In addition, for the setting “HEPG2TOX_HILL_SLOPE 5.47, HEPG2TOX_R_SQUARED 0.316, read-out: LUCIFERASE INFECTION ASSAY - IC50”, the IC50 is above 6.74 µM.

Consider `Cc1cc2c(cc1C)C(NCCc1ccccc1)=NC(C)(C)C2`, for which the IC90 was 5.1 µM. The IC50 (HEPG2TOX_HILL_SLOPE 5.51, HEPG2TOX_R_SQUARED 0.604, PBLUC_HILL_SLOPE 9.09, PBLUC_R_SQUARED 0.396, read-out: LUCIFERASE INFECTION ASSAY - IC50) amounted to 4 µM.

In the case of `FC(F)(F)c1nc2ccccc2n1-c1cc(-c2ccccc2)n[nH]1`, the IC90 is above 10 µM. For the same compound, the IC50 (HEPG2TOX_HILL_SLOPE 5.49, HEPG2TOX_R_SQUARED 0.606, read-out: LUCIFERASE INFECTION ASSAY - IC50) is above 10 µM.

Consider `COC(=O)c1c(C)[nH]c(C(=O)Nc2nc(-c3cc(C)sc3C)cs2)c1C`, for which the IC90 is above 10 µM. Further, the IC50 (HEPG2TOX_HILL_SLOPE 5.44, HEPG2TOX_R_SQUARED 0.234, read-out: LUCIFERASE INFECTION ASSAY - IC50) was above 10 µM.

As for `Cc1cc(C(O)(C(F)(F)F)C(F)(F)F)c(C)n1-c1ccc(N(C)C)cc1`, the IC90 is above 10 µM. Besides, the IC50 (HEPG2TOX_HILL_SLOPE 5.45, HEPG2TOX_R_SQUARED 0.58, PBLUC_HILL_SLOPE 4.49, PBLUC_R_SQUARED 0.403, read-out: LUCIFERASE INFECTION ASSAY - IC50) turned out to be 7.53 µM.

For the compound `N#Cc1cccc(CN2CCN3C(C(=O)Nc4ccc(Oc5ccccc5)cc4)=COC3=NC2=O)c1`, the IC90 was above 10 µM. Further, the concentration for half-maximal inhibition (IC50) (HEPG2TOX_HILL_SLOPE 5.43, HEPG2TOX_R_SQUARED 0.0351, read-out: LUCIFERASE INFECTION ASSAY - IC50) was above 10 µM.

On to `FC(F)(F)c1cnc(N/N=C/c2cn(-c3ccccc3)nc2-c2cc3ccccc3o2)c(Cl)c1`, for which the IC90 was above 10 µM. Besides, the IC50 (HEPG2TOX_HILL_SLOPE 5.1, HEPG2TOX_R_SQUARED 0.771, read-out: LUCIFERASE INFECTION ASSAY - IC50) is above 10 µM.

For `S=C(NCc1ccccc1Cl)NC12CC3CC(CC(C3)C1)C2`, the concentration for an effect of 90% (IC90) was above 9.85 µM. Further, the IC50 (HEPG2TOX_HILL_SLOPE 5.09, HEPG2TOX_R_SQUARED 0.92, PBLUC_HILL_SLOPE 1.78, PBLUC_R_SQUARED 0.451, read-out: LUCIFERASE INFECTION ASSAY - IC50) came out at 7.44 µM.

As for `CCC(C)NC(=O)c1c(NC(=O)c2ccc(F)cc2)nc2ccc(C)cn12` (configuration not stated), the IC90 turned out to be 3.49 µM. Moreover, the IC50 (HEPG2TOX_HILL_SLOPE 5.39, HEPG2TOX_R_SQUARED 0.713, PBLUC_HILL_SLOPE 10.6, PBLUC_R_SQUARED 0.548, read-out: LUCIFERASE INFECTION ASSAY - IC50) was 2.84 µM.

Take `CN(CCOc1ccccc1)C(=O)c1ccc(Cl)c(S(=O)(=O)N(Cc2ccccc2)c2ccccc2)c1`: the IC90 is above 10 µM. Moreover, the IC50 (HEPG2TOX_HILL_SLOPE 5.5, HEPG2TOX_R_SQUARED 0.0292, PBLUC_HILL_SLOPE 16, PBLUC_R_SQUARED 0.261, read-out: LUCIFERASE INFECTION ASSAY - IC50) is 9.56 µM.
